“Also recorded” adds a separate entry of the source. Where no end group is shown, it is not given here.
What was measured:
PDHR 43673 = molecular target: T1, PDHR 43673 (Carcinus maenas, UniProt A0A7G7MT97); assay: heterologous aequorin-based receptor luminescence assay, PDHR 43673; format: cell-based; details: Ca2+ luminescence; for activation of PDHR 43673 (in words): CHO-K1-Aeq-Gα16 cells
T1 sequence (A0A7G7MT97 1-455): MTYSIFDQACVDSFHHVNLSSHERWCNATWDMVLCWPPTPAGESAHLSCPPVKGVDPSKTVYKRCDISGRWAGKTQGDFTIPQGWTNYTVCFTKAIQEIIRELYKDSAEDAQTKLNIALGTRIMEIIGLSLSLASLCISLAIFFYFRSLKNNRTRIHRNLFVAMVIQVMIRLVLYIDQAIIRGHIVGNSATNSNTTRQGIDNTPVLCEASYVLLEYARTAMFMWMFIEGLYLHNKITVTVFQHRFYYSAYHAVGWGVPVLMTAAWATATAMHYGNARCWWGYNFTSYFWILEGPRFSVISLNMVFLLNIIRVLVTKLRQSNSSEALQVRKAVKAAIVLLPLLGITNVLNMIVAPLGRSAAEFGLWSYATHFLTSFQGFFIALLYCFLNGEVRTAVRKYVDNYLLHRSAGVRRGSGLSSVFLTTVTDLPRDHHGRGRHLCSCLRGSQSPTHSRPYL
Experimental: (§1) PCR of these transcripts was performed as described previously ([Alexander J. et al., 2018]; [Alexander J. L. et al., 2018]). Primer sequences for directional cloning and expression are shown in Supplementary Table 1. Correctly sized PCR products were directionally cloned into pcDNA 3.1 D/V5-His-TOPO plasmids (Invitrogen) and the recombinant vector transformed into TOP 10 competent cells (Invitrogen). Positive clones were cultured overnight in selective LB medium with 100 μg ml^–1 ampicillin, plasmids extracted (FastPlasmid Mini Kit, 5Prime, Hamburg, Germany), resequenced to confirm insert orientation and verification (MWG Eurofins, Ebersberg, Germany), and analyzed using Geneious V 9.1.8.
(§2) A heterologous cell–based assay using Chinese hamster ovary cells (CHO-K1) expressing apoaequorin (Perkin Elmer, Boston, MA, […]) and either the Gα16 or Gq subunit (control cells) was used to report intracellular Ca^2+ fluxes after exposure to ligand, as previously detailed ([Alexander J. et al., 2018]; [Alexander J. L. et al., 2018]).
(§3) Peptides used in the luminescence assay were synthetic C. maenas PDH-1-3 and e-PDH, DH-31 (Genecust Dudelange, Luxembourg). Peptides were reconstituted in 30% acetonitrile, aliquoted and dried by vacuum centrifugation and subsequently re-dissolved in BSA medium (DMEM/F, 50 mM HEPES, 0.1% BSA) immediately prior to assay, and dispensed into quadruplicate wells of white 96 well plates (OptiPlate, Perkin Elmer). Cell suspensions (5 × 10^6 cells/ml) were stirred gently and 50 μl amounts were injected into each well using a Mithras LB940 microplate reader (Berthold Technologies, Bad-Wildbad, Germany). Ca^2+ evoked luminescence was recorded for 40 s, followed by cell lysis (injection of 0.3% Triton-X 100 in BSA medium), and light emission recorded for a further 10 s. BSA medium was used for blank measurements (6 replicates per plate), and mock transfections with empty vectors for negative controls. Data reduction and analysis was done using MikroWin v5.18 (Mikrotek Laborsysteme, GmBH, Overath, Germany) and SigmaPlot v.13 (Systat Software Inc., San José CA, United States). Receptor responses were normalized against total Ca^2+ luminescence.

PDHR 41189 = molecular target: T2, PDHR 41189 (Carcinus maenas, UniProt A0A7G7MT96); assay: heterologous aequorin-based receptor luminescence assay, PDHR 41189; format: cell-based; details: Ca2+ luminescence; for activation of PDHR 41189 (in words): CHO-K1-Aeq-Gα16 cells
T2 sequence (A0A7G7MT96 1-455): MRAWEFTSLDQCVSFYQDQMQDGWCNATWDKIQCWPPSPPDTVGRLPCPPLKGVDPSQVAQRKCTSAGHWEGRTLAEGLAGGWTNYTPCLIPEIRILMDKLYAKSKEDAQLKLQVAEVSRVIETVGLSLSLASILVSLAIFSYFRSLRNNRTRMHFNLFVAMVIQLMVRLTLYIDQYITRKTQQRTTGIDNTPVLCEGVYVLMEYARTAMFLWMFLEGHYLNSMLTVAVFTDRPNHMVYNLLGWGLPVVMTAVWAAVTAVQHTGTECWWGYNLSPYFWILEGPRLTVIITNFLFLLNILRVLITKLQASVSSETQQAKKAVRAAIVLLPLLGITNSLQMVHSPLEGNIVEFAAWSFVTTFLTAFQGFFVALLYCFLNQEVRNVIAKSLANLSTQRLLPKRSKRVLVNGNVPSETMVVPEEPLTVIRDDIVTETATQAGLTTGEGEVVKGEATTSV
Experimental: as §1, §2, §3

[1] = test system: red chromatophores (erythrophores) in the dactyl of the last walking leg; assay: chromatophore dispersion bioassay in vivo, red chromatophores (erythrophores); parameters: species or system Carcinus maenas; details: n = 6 crabs; for dose giving significant dispersion of red chromatophores (erythrophores): 40 min after injection, 10 μl, p < 0.05, Hogben-Slome index; for dispersion of red chromatophores (in words): significant responses to doses of around 0.5 pmol per crab 40 min after injection
Experimental: (§4) The pigmentary effector activity of all PDHs was measured in vivo using small (15–20 mm carapace width) C. maenas, which were light adapted against a white background (300 lux for 1 h). Pigment dispersion of the red and black chromatophores in the dactyl of the last walking leg was observed microscopically and indices of dispersion scored ([Hogben and Slome, 1931]). Peptides were reconstituted in physiological saline ([Saver et al., 1999]) immediately prior to assay, to minimize Met oxidation (storage of reconstituted peptides in frozen saline for extended periods completely abolished biological activity) and injected (10 μl) using hand-drawn, calibrated microcapillaries at 50–0.05 pmol per crab, with saline controls. Chromatophore dispersion indices were scored at 20 min intervals for 1 h.
(§5) FIGURE 9 The effect of PDHs on pigment migration in epidermal chromatophores of the 5th walking leg dactylus of C. maenas. Left panel: erythrophores, right panel: melanophores. Peptides were injected at 0.05–5 pmol per crab for PDH-1, -2, 5–50 pmol per crab for PDH-3, e-PDH, in 10 μl volumes. Mean (n = 6 crabs) chromatophore indices (Hogben-Slome) are indicated. Asterisks indicate significant differences in chromatophore stage (p < 0.05, Wilcoxon sign-rank test) 40 min after injection of peptide, compared to 0 min.

[2] = test system: black chromatophores (melanophores) in the dactyl of the last walking leg; assay: chromatophore dispersion bioassay in vivo, black chromatophores (melanophores); parameters: species or system Carcinus maenas; details: injected 0.05–5 pmol per crab; n = 6 crabs; melanophores were invariably partially dispersed in all crabs
Experimental: as §4, §5

[3] = test system: red and black chromatophores in the dactyl of the last walking leg; assay: chromatophore dispersion bioassay in vivo, red and black chromatophores; parameters: species or system Carcinus maenas; details: n = 6 crabs; for potency in chromatophore dispersion assay (in words): injected 0.05–5 pmol per crab
Experimental: as §4, §5

anti-PDH antiserum R171 = assay: enzyme immunoassay (EIA), cross-reactivity with PDH antiserum R171; format: binding; details: for dose required to give an absorbance of 1.0 in the EIA: PDH antiserum R171 raised to PDH-1, 1:2000, absorbance at 405 nm
Experimental: Fixed nervous systems were processed for whole mount IHC as previously described ([Webster et al., 2013]). In some, whole eyestalks, including cuticle were taken from postmolt crabs, and routinely fixed (Bouin’s) and processed for paraffin wax embedding; thick serial sections (25–30 μm) were then prepared and processed for IHC. Primary antiserum concentrations [anti-PDH code R171, raised to a thyroglobulin conjugate of PDH-1 as described ([Dircksen et al., 1987]) and characterized ([Wilcockson et al., 2011])] was 1:2000. Secondary antiserum dilution (Alexa Fluor 488 goat anti-rabbit, Invitrogen, Thermo Fisher Scientific) was 1:750. Preparations were mounted on cavity slides using Vectashield (VectorLabs, United Kingdom), cover slipped, sealed with nail varnish, and images collected and Z-stacked at 5 μm intervals on a Zeiss 710 confocal microscope equipped with Zen Black edition software (Carl Zeiss, Jena, Germany).
To identify the neurohormonal PDH inventory, 50 sinus glands (SG) were extracted in 2 M acetic acid and separated by HPLC. Conditions: 4.6 mm × 300 mm Jupiter C18 300 Å column (Phenomenex, Macclesfield, United Kingdom) 40–80% solvent B over 30 min, 1 ml/min, detection at 210 nm, solvent A, 0.11% trifluoroacetic acid (TFA); solvent B 60% acetonitrile, 0.1% TFA. Fractions (1 ml) were dried by vacuum centrifugation and reconstituted in 0.1 M bicarbonate buffer, pH 9.3 immediately prior to immunoassay. Standard PDHs (800 pmol) were subsequently chromatographed to establish SG fractions for further MS analysis. PDH immunoreactive fractions were identified by enzyme immunoassay (EIA). Reconstituted fractions (100 μl) were coated onto high protein binding microplates (Costar 3590, Corning, VWR International, United Kingdom), overnight at 4 °C, followed by washing (3 times with 0.1 M bicarbonate buffer), blocking (0.1% BSA, 1 h RT) and incubation in 100 μl/well 1:2000 anti-PDH in containing 0.1% Tween 20 (PBST), overnight 4 °C. After washing (5 times with PBST), plates were incubated in 1:5000 goat anti-rabbit peroxidase labeled IgG (Vector laboratories, United Kingdom), for 6 h, RT. After washing (5 times with PBST), peroxidase activity was visualized (0.04% ABTS, 0.01% H2O2 (30%), 0.1 M phosphate/citrate buffer, pH 4.0). PDH-1 2500-2.5 fmol per well was used to generate standard curves for quantification. Absorbance at 405 nm was measured on a microplate reader (Mithras LB 940) with data analysis (MikroWin v5.18).

Substance | activation of PDHR 43673 (in words) (PDHR 43673) | activation of PDHR 41189 (in words) (PDHR 41189) | dose giving significant dispersion of red chromatophores (erythrophores) [1] | dispersion of red chromatophores (in words) [1] | dispersion of black chromatophores (melanophores) (in words) [2] | potency in chromatophore dispersion assay (in words) [3] | specificity of antiserum (in words) (anti-PDH antiserum R171; PDH antiserum R171) | dose required to give an absorbance of 1.0 in the EIA (anti-PDH antiserum R171) | dispersion of red chromatophores at the lowest dose (in words) ([1]; lowest dose, 50 fmol per crab) | chromatophore-dispersing activity (in words) ([3]; 5–50 pmol per crab, highest dose 50 pmol per crab) | EC50 (PDHR 43673; approximate EC50, CHO-K1-Aeq-Gα16 cells transiently expressing PDHR 43673, means of N = 4, normalized against maximum luminescence responses for PDH-1) [µM] | EC50 (PDHR 41189; approximate EC50, CHO-K1-Aeq-Gα16 cells transiently expressing PDHR 41189, means of N = 4, normalized against maximum luminescence responses for PDH-1) [µM]
NSELINSILGLPKVMNDA-NH2 [PDH-1] | activated by PDH-1 and PDH-2 at low nanomolar doses; also recorded: much more sensitive and larger luminescence responses; also recorded: activated the 43673 receptor in the low nanomolar range; also recorded: pronounced selectivity for PDH-1, -2 | high nanomolar concentrations of PDH-1, -2 were needed to result in a luminescent signal | around 0.5 pmol per crab | effective in dispersing red chromatophores (erythrophores) | also dispersed black chromatophores (melanophores), but to a lesser extent | exhibit biological activity in the chromatophore dispersion assay | rather marked specificity to PDH-1; also recorded: marked selectivity for this peptide | 150 fmol | – | – | – | –
NSELINSLLGLSRLMNEA-NH2 [PDH-2] | activated by PDH-1 and PDH-2 at low nanomolar doses; also recorded: much more sensitive and larger luminescence responses; also recorded: activated the 43673 receptor in the low nanomolar range; also recorded: pronounced selectivity for PDH-1, -2 | high nanomolar concentrations of PDH-1, -2 were needed to result in a luminescent signal | around 0.5 pmol per crab | effective in dispersing red chromatophores (erythrophores) | also dispersed black chromatophores (melanophores), but to a lesser extent | exhibit biological activity in the chromatophore dispersion assay; also recorded: very potent in the chromatophore dispersion assay | – | > 10,000 fmol | some pigment dispersion was observed at the lowest dose (50 fmol per crab) although this was transient and statistically not significant | – | – | –
NSELINTLLGSQDLGNMRNA-NH2 [e-PDH] | micromolar concentrations of PDH-3 and e-PDH were necessary to activate this receptor; also recorded: even micromolar concentrations of PDH-3 and e-PDH were needed to produce rather weak luminescence responses | activated by PDH-3 and an extended 20 residue e-PDH; also recorded: activated by PDH-3 and e-PDH at low nanomolar concentrations; also recorded: low nanomolar concentrations of PDH-3 and e-PDH activated this receptor; also recorded: preferentially activated by PDH-3 and e-PDH | – | – | – | – | – | 8000 fmol | – | entirely without chromatophore-dispersing activity, even at the highest dose used | – | –
PDH-3: synthetic C. maenas pigment dispersing hormone 3, 18 residues, C-terminal Ala-amide; MN602309 | – | – | – | – | – | – | – | – | – | – | 10 | 0.025
diuretic hormone-31 [DH-31, reference compound] | Neither receptor was activated by DH-31 | Neither receptor was activated by DH-31 | – | – | – | – | – | – | – | – | – | –
